We go through one molecule from PMC6333442, “Conserved allosteric pathways for activation of TRPV3 revealed through engineering vanilloid-sensitivity” (eLife, 2019).

The target of the assay is T1, TRPV3-6M + V587L (Mus musculus, UniProt Q8K424, A560T/F522S/H523E/L557M/Q580E/V587L/W521Y).
T1 construct: expressed in transfected cells; host or cells: Xenopus laevis oocytes
T1 sequence (Q8K424 1-791 W521Y/F522S/H523E/L557M/A560T/Q580E/V587L): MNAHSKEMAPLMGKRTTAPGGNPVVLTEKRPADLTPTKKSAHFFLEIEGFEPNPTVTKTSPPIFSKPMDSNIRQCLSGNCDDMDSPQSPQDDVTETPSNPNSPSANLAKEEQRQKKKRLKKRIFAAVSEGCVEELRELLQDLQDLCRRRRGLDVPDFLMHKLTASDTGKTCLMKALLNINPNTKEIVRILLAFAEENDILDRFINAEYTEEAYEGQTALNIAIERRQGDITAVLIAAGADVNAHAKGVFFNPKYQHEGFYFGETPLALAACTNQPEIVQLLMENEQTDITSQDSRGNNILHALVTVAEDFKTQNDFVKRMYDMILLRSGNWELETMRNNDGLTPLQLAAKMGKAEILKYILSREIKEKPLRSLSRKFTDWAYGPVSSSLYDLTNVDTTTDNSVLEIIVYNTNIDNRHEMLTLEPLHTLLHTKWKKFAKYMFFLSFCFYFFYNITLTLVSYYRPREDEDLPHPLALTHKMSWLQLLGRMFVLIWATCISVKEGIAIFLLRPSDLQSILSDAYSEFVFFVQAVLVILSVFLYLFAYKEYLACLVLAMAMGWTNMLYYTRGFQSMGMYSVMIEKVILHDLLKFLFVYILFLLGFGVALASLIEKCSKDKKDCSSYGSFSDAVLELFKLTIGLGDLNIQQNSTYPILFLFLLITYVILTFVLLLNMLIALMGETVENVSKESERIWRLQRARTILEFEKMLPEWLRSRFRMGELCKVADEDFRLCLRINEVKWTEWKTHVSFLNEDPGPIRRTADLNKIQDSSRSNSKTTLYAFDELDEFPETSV
The assay can be described thus: Two-electrode voltage clamp, TRPV3-6M + V587L, RTx concentrations. It counts as cell-based. On the procedure:
All channel constructs were expressed in Xenopus laevis oocytes and studied using the two-electrode voltage clamp technique (TEVC) following 1–4 days of incubation after cRNA injection. The animal care and experimental procedures were performed in accordance with the Guide for the Care and Use of Laboratory Animals and were approved by the Animal Care and Use Committee of the National Institute of Neurological Disorders and Stroke (Animal protocol number 1253–17). Oocytes were removed surgically and incubated with agitation for 1 hr in a solution containing (in mM) 82.5 NaCl, 2.5 KCl, 1 MgCl2, 5 HEPES, pH 7.6 (with NaOH), and collagenase (2 mg/ml; Worthington Biochemical, Lakewood, NJ). Defolliculated oocytes were injected with cRNA for each of the constructs and incubated at 17°C in a solution containing (in mM) 96 NaCl, 2 KCl, 1 MgCl2, 1.8 CaCl2, 5 HEPES, pH 7.6 (with NaOH), and gentamicin (50 μg/ml, GIBCO-BRL, Gaithersburg, MD). Oocyte membrane voltage was controlled using an OC-725C oocyte clamp (Warner Instruments, Hamden, CT). Data were filtered at 1–3 kHz and digitized at 20 kHz using pClamp software (Molecular Devices, Sunnyvale, CA) and a Digidata 1440A digitizer (Axon Instruments). Microelectrode resistances were 0.1–1 MΩ when filled with 3 M KCl. For recording TRP channel currents, the external recording solution contained (in mM) 100 KCl, 10 HEPES, pH 7.6 (with KOH). […]
A general note: Two-electrode voltage clamp holds a large cell at a set potential and records current.

For the molecule `C=C(C)[C@]12C[C@@H](C)[C@@]34O[C@](Cc5ccccc5)(O[C@@H]1[C@@H]3C=C(COC(=O)Cc1ccc(O)c(OC)c1)C[C@]1(O)C(=O)C(C)=C[C@@H]41)O2` [RTx, resiniferatoxin], the “dissociation of RTx” value was “exceedingly slow”.
